According to patent publication US20040009973A1, “Novel potassium channels modulators” (4SC AG, priority 2002, published 2004):

These compounds were tested against T1, BK potassium channel, cloned hSlo (α-hSlo and β-bSlo) in CHO cells (Homo sapiens, UniProt Q12791) (assay: Em-Assay: membrane potential with voltage sensitive dye DiBAC(4)3, fluorescence plate reader). Conditions: compound 50 μM; NS004 25 or 50 μM; hSlo transfected CHO cells; change in DiBAC(4)3 fluorescence intensity.
T1 construct: expressed in transfected cells; host or cells: CHO cells, permanently transfected
Assay type: cell-based
Excerpt: The large conductance, voltage-dependent and Ca^2+-activated potassium channel BK is a potassium selective ion channel and belongs to the subfamily of KCa channels. Four BK alpha-subunits form a functional channel that can be regulated by intracellular Ca^2+ concentration, membrane voltage, and other mechanisms like phosphorylation states or beta subunits. To test the biological activity of the compounds, we applied two different techniques, a fluorescence based assay using a voltage sensitive dye (Em-Assay) as well as exploiting electrophysiological methods.
CHO cells permanently transfected with cloned hSlo (α-hSlo and β-bSlo), yielding typical BK potassium currents (Zhou et al., Pflügers Arch., 436: 725-734 (1998), were used for the evaluation of compound activity. Activation or inhibition of BK channels in these cells leads to a change of the electrochemical gradient causing a hyperpolarized or depolarised membrane potential, respectively.
To determine changes in the membrane potential of the cells we used the voltage sensitive dye DiBAC(4)3 (Molecular Probes) in a kinetic assay system using a fluorescent plate reader (Manning and Sontheimer, J. Neurosci, Meth., 91: 73-81 (1999). The anionic bis-oxonol DiBAC(4)3 is a voltage sensitive dye which partitions from the extracellular environment into the cell where it reversibly binds to intracellular proteins, a kinetic process depending on the membrane potential of the cell. At depolarised potentials (i.e. at a reduced K^+ efflux due to blocked K^+ channels) the dye accumulates in the cell leading to an increased fluorescence intensity, due to its increased fluorescence if bound to cellular proteins. At hyperpolarized potentials (i.e. at an increased K^+ efflux due to the opening of K^+ channels), the dye partitions out of the cell causing a decreased fluorescence intensity.
hSlo transfected CHO cells where maintained in DMEM supplemented with 10% FCS, 250 μg/ml Geneticin, 100 μg/ml Hygromycin, 1×HT-Supplement, and 1×Non-essential Amino Acids and cultured in a humidified CO2 incubator. After trypsination, cells where plated with a density of 5×10^4 cells per well on a clear 96-well plate and incubated for 24 h. Cells where washed once with PBS, once with PBS containing 20 mM HEPES (adjusted to pH 7.4 with NaOH) and 2 μM DIBAC(4)3 (DPBS-DiBAC solution). 180 μl of the dPBS-DiBAC solution was then added to the cells and the plate incubated for 30-60 min at 37° C. During this time the dye could partition into the cells and reach a certain steady-state distribution, depending on the resting membrane potential. Test and reference compounds were stored as DMSO stock solutions and diluted in dPBS-DiBAC solution to the desired concentration.
Fluorescence intensity (Ex.: 485 nm/Em.: 520 nm) of each well was detected in the plate reader (Fluostar, BMG) every 60 seconds. After recording the baseline fluorescence for 7 minutes, 20 μl test—and reference compounds were added and the fluorescence intensity was detected for additional 15 minutes. Background was subtracted, data values were normalized and expressed as a change in fluorescence intensity against time. The change in fluorescence intensity caused by the test compounds was evaluated, compared to the effect of the reference compound NS004, and the ratio was determined (see Table I).

T1 sequence (Q12791 1-1178 isoform Q12791-5): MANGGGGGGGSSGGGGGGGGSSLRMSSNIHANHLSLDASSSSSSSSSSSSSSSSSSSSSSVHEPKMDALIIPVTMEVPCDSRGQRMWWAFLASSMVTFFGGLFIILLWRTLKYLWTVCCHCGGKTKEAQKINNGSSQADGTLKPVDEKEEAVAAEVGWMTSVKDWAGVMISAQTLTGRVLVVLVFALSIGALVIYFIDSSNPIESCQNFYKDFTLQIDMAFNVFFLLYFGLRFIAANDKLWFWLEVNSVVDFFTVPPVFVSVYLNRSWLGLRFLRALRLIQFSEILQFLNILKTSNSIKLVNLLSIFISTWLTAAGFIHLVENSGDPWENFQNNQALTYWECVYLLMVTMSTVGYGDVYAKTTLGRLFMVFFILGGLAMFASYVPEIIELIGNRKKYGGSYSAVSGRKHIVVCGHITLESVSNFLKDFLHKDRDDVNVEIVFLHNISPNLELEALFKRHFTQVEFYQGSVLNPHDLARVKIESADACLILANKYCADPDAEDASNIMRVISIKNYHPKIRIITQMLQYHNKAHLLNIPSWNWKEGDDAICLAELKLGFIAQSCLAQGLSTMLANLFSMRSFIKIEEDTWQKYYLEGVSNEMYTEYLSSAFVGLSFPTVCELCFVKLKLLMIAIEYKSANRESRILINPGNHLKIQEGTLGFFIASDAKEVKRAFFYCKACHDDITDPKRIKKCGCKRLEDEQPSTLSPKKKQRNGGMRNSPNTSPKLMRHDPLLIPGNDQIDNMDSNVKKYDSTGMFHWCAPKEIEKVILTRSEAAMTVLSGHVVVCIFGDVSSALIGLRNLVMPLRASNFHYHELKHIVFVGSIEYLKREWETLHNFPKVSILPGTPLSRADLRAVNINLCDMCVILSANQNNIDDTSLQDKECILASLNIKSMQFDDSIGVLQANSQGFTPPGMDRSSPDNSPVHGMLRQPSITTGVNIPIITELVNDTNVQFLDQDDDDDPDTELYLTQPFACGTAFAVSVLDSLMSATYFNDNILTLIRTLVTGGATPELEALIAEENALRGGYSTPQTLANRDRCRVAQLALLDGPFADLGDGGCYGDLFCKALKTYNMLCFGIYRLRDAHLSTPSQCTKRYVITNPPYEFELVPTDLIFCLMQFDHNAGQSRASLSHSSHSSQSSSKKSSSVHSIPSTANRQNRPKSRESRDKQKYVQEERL
T1 sequence (Q28067 2-191 partner limits assumed): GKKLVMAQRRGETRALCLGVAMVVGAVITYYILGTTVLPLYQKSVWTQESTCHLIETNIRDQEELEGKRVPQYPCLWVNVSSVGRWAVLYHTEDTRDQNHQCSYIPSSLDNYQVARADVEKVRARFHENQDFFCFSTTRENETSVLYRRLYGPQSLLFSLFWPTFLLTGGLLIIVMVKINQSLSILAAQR

Compound | Em effect: ratio of the compound effect compared to the maximal effect of NS004
N#Cc1ccccc1-c1ccc(CNc2cc(NCc3ccc(-c4ccccc4C#N)cc3)cc(C(F)(F)F)c2)cc1 [Compound 73] | + (0-1 = +)
FC(F)(F)c1cc(NCc2ccccc2Cl)cc(NCc2ccccc2Cl)c1 [Compound 75] | + (0-1 = +)
COc1cccc(CNc2cc(NCc3cccc(OC)c3)cc(C(F)(F)F)c2)c1 [Compound 76, N,N′-bis-(3-methoxybenzyl)-5-trifluoromethylbenzene-1,3-diamine] | + (0-1 = +)
CC(C)(C)c1ccc(CNc2cc(NCc3ccc(C(C)(C)C)cc3)cc(C(F)(F)F)c2)cc1 [Compound 77, N,N′-bis-(4-tert-butylbenzyl)-5-trifluoromethylbenzene-1,3-diamine] | + (0-1 = +)
CC(C)(C)c1ccc(CNc2cc(NCc3csc4ccc(Cl)cc34)cc(C(F)(F)F)c2)cc1 [Compound 78] | + (0-1 = +)
CC(C)(C)c1ccc(CNc2cc(NCc3ccc(-c4csnn4)cc3)cc(C(F)(F)F)c2)cc1 [Compound 79, N-(4-tert-butylbenzyl)-N′-(4-[1,2,3]thiadiazol-4-yl-benzyl)-5-tri-fluoromethylbenzene-1,3-diamine] | + (0-1 = +)
Fc1cc(F)cc(CNc2cc(NCc3csc4ccc(Cl)cc34)cc(C(F)(F)F)c2)c1 [Compound 80] | + (0-1 = +)
COc1cccc(CNc2cc(NCc3csc4ccc(Cl)cc34)cc(C(F)(F)F)c2)c1 [Compound 81] | + (0-1 = +)
COc1cccc(CNc2cc(NCc3cccc(Cl)c3)cc(C(F)(F)F)c2)c1 [Compound 82] | + (0-1 = +)
COc1cccc(CNc2cc(NCc3ccc(C(F)(F)F)cc3)cc(C(F)(F)F)c2)c1 [Compound 83, N-(3-methoxybenzyl)-5-tri-fluoromethyl-N′-(4-tri-fluoromethylbenzyl)-benzene-1,3-diamine] | + (0-1 = +)
CC(C)(C)c1ccc(CNc2cc(NCc3ccc(C(F)(F)F)cc3)cc(C(F)(F)F)c2)cc1 [Compound 84] | + (0-1 = +)
O=[N+]([O-])c1ccc(CNc2cc(NCc3ccccc3C(F)(F)F)cc(C(F)(F)F)c2)o1 [Compound 85] | + (0-1 = +)
Cc1cc(NCc2ccc(S(C)(=O)=O)cc2)ccc1NCc1ccc(S(C)(=O)=O)cc1 [Compound 86] | + (0-1 = +)
Cc1cc(NCc2ccc(-c3csnn3)cc2)ccc1NCc1ccc(-c2csnn2)cc1 [Compound 87] | + (0-1 = +)
Clc1cc(NCc2ccc(-c3csnn3)cc2)ccc1NCc1ccc(-c2csnn2)cc1 [Compound 88] | + (0-1 = +)
Clc1cc(NCc2ccc(-c3csnn3)cc2)c(Cl)cc1NCc1ccc(-c2csnn2)cc1 [Compound 89] | + (0-1 = +)
COc1cccc(CNc2cc(Cl)c(NCc3cccc(OC)c3)c(Cl)c2)c1 [Compound 90, 2,6-dichloro-N,N′-bis-(3-methoxy-benzyl)-benzene-1,4-diamine] | + (0-1 = +)

Compound | Em effect: ratio of the compound effect compared to the maximal effect of NS004
Clc1cc(NCc2ccc(-c3csnn3)cc2)cc(Cl)c1NCc1ccc(-c2csnn2)cc1 [Compound 91] | + (0-1 = +)
Fc1cccc(Cl)c1CNc1ccc(NCc2c(F)cccc2Cl)cc1 [Compound 92] | + (0-1 = +)
Cc1cc(NCc2c(F)cccc2Cl)ccc1NCc1c(F)cccc1Cl [Compound 93] | + (0-1 = +)
Fc1cccc(Cl)c1CNc1ccc(NCc2c(F)cccc2Cl)c(Cl)c1 [Compound 94] | + (0-1 = +)
Clc1ccccc1CNc1ccc(NCc2ccccc2Cl)cc1 [Compound 95, N,N′-bis-(2-chlorobenzyl)-benzene-1,4-diamine] | + (0-1 = +)
Clc1ccccc1CNc1ccc(NCc2ccccc2Cl)c(Cl)c1 [Compound 96] | + (0-1 = +)
FC(F)(F)c1ccccc1CNc1ccc(NCc2ccccc2C(F)(F)F)cc1 [Compound 97] | + (0-1 = +)
Fc1cc(F)cc(CNc2ccc(NCc3cc(F)cc(F)c3)cc2)c1 [Compound 98, N,N′-bis-(3,5-difluorobenzyl)-benzene-1,4-diamine] | + (0-1 = +)
Fc1ccc(CNc2ccc(NCc3ccc(F)cc3F)cc2)c(F)c1 [Compound 99] | + (0-1 = +)
Fc1cccc(CNc2ccc(NCc3cccc(F)c3)cc2)c1 [Compound 100, N,N′-bis(3-fluorobenzyl)-benzene-1,4-diamine] | + (0-1 = +)
Cc1cc(NCc2ccc(C(F)(F)F)cc2)ccc1NCc1ccc(C(F)(F)F)cc1 [Compound 101, 2-methyl-N1,N4-bis-(4-trifluoromethylbenzyl)-benzene-1,4-diamine] | + (0-1 = +)
Cc1cc(NCc2ccc(F)cc2F)ccc1NCc1ccc(F)cc1F [Compound 102, N^1,N^4-bis-(2,4-difluorobenzyl)-2-methylbenzene-1,4-diamine] | + (0-1 = +)
Cc1cc(NCc2cccc(F)c2)ccc1NCc1cccc(F)c1 [Compound 103, N^1,N^4-bis-(3-fluorobenzyl)-2-methylbenzene-1,4-diamnine] | + (0-1 = +)
FC(F)(F)c1ccccc1CNc1ccc(NCc2ccccc2C(F)(F)F)c(Cl)c1 [Compound 104, 2-chloro-N^1,N^4-bis-(2-trifluoromethylbenzyl)-benzene-1,4-diamine] | + (0-1 = +)
FC(F)(F)c1ccc(CNc2ccc(NCc3ccc(C(F)(F)F)cc3)c(Cl)c2)cc1 [Compound 105] | + (0-1 = +)
Fc1ccc(CNc2ccc(NCc3ccc(F)cc3F)c(Cl)c2)c(F)c1 [Compound 106] | + (0-1 = +)
Fc1cccc(CNc2ccc(NCc3cccc(F)c3)c(Cl)c2)c1 [Compound 107] | + (0-1 = +)
